Literature values in patent US11013731B2, “Intratumoral administration of sirolimus for treatment of prostate cancer” (SANTEN PHARMACEUTICAL CO., LTD., priority 2017, dated 2021).

Conditions: according to Medscape

Compound: CO[C@H]1C[C@@H]2CC[C@@H](C)[C@@](O)(O2)C(=O)C(=O)N2CCCC[C@H]2C(=O)O[C@H]([C@H](C)C[C@@H]2CC[C@@H](O)[C@H](OC)C2)CC(=O)[C@H](C)/C=C(\C)[C@@H](O)[C@@H](OC)C(=O)[C@H](C)C[C@H](C)/C=C/C=C/C=C/1C [sirolimus]
- oral bioavailability: 14%
